# Results from PubChem BioAssay AID240 (DTP/NCI, 2004).
# Values joined by “and” are separate entries in the source; they are usually repeats but may differ in a detail not shown here. Equal values may be shown once. Inconclusive results and toxic doses are left out.
# Test system: Lymphoma 4 ip in BDF1 mice, median survival
# Test: NCI In Vivo Anticancer Drug Screen. Data for tumor model Lymphoma 4 (intraperitoneal) in B6D2F1 (BDF1) mice
# Conditions: endpoint: median survival time, higher = longer survival
# Method: The antitumor activity of compounds was measured in mice bearing transplantable tumors. Survival or tumor size were measured and the results are expressed as the measurement made in the treated group (T) divided by the measurement made in the vehicle treated control group (C). The tumor model used in this assay is Lymphoma 4 (intraperitoneal) in B6D2F1 (BDF1) mice
# [1] = dose: 3.13 mg/kg/injection, schedule: Q01DX010 (ip), vehicle: saline
# [2] = dose: 6.25 mg/kg/injection, schedule: Q01DX010 (ip), vehicle: saline
# [3] = dose: 12.5 mg/kg/injection, schedule: Q01DX010 (ip), vehicle: saline
# [4] = dose: 25.0 mg/kg/injection, schedule: Q01DX010 (ip), vehicle: saline
# [5] = dose: 8.0 mg/kg/injection, schedule: Q01DX010 (ip), vehicle: saline
# [6] = dose: 16.0 mg/kg/injection, schedule: Q01DX010 (ip), vehicle: saline
# [7] = dose: 4.0 mg/kg/injection, schedule: Q01DX010 (ip), vehicle: saline
# [8] = dose: 15.6 mg/kg/injection, schedule: Q01DX010 (ip), vehicle: saline
# [9] = dose: 31.3 mg/kg/injection, schedule: Q01DX010 (ip), vehicle: saline
# [10] = dose: 62.5 mg/kg/injection, schedule: Q01DX010 (ip), vehicle: saline
# [11] = dose: 18.8 mg/kg/injection, schedule: Q01DX010 (ip), vehicle: saline
# [12] = dose: 37.5 mg/kg/injection, schedule: Q01DX010 (ip), vehicle: saline
# [13] = dose: 75.0 mg/kg/injection, schedule: Q01DX010 (ip), vehicle: saline
# [14] = dose: 5.0 mg/kg/injection, schedule: Q01DX010 (ip), vehicle: saline
# [15] = dose: 10.0 mg/kg/injection, schedule: Q01DX010 (ip), vehicle: saline
# [16] = dose: 20.0 mg/kg/injection, schedule: Q01DX010 (ip), vehicle: saline
# [17] = dose: 40.0 mg/kg/injection, schedule: Q01DX010 (ip), vehicle: saline
# [18] = dose: 100.0 mg/kg/injection, schedule: Q01DX010 (ip), vehicle: saline
# [19] = dose: 200.0 mg/kg/injection, schedule: Q01DX010 (ip), vehicle: saline
# [20] = dose: 125.0 mg/kg/injection, schedule: Q01DX010 (ip), vehicle: saline
# [21] = dose: 250.0 mg/kg/injection, schedule: Q01DX010 (ip), vehicle: saline
# [22] = dose: 50.0 mg/kg/injection, schedule: Q01DX010 (ip), vehicle: saline
# [23] = dose: 2.0 mg/kg/injection, schedule: Q01DX010 (ip), vehicle: saline
# [24] = dose: 400.0 mg/kg/injection, schedule: Q01DX010 (ip), vehicle: saline
# [25] = dose: 1.25 mg/kg/injection, schedule: Q01DX010 (ip), vehicle: saline
# [26] = dose: 0.5 mg/kg/injection, schedule: Q01DX010 (ip), vehicle: saline
# [27] = dose: 0.25 mg/kg/injection, schedule: Q01DX010 (ip), vehicle: saline
# [28] = dose: 1.0 mg/kg/injection, schedule: Q01DX010 (ip), vehicle: saline
structure (smiles),measurement,setting,value
C[C@H]1C(=O)O[C@@H]2CCN3CC=C(COC(=O)[C@](C)(O)[C@@]1(C)O)[C@H]23,T/C,[1],94 % of control and 100 % of control
same,T/C,[2],93 % of control and 94 % of control
same,T/C,[3],94 % of control and 103 % of control
same,T/C,[4],91 % of control and 103 % of control
Nc1nc(SCc2ccccc2)c2[nH]cnc2n1,T/C,[5],96 % of control and 100 % of control
same,T/C,[6],96 % of control and 100 % of control
O=[n+]1c2c(n([O-])c3ccccc31)-c1cccc3cccc-2c13,T/C,[1],107 % of control
same,T/C,[2],107 % of control
same,T/C,[3],115 % of control
same,T/C,[4],100 % of control
CCn1cnc2c(=S)nc[nH]c21,T/C,[7],96 % of control
same,T/C,[5],100 % of control
same,T/C,[8],93 % of control and 106 % of control
same,T/C,[6],96 % of control
same,T/C,[9],103 % of control
same,T/C,"dose: 32.0 mg/kg/injection, schedule: Q01DX010 (ip), vehicle: saline",96 % of control and 100 % of control
same,T/C,[10],100 % of control
Nc1nc2n[nH]nc2c(=O)[nH]1,T/C,"dose: 25.0 mg/kg/injection, schedule: Q01DX010 (ip), vehicle: alkali diluted with saline",106 % of control
same,T/C,"dose: 50.0 mg/kg/injection, schedule: Q01DX010 (ip), vehicle: alkali diluted with saline",120 % of control
same,T/C,"dose: 200.0 mg/kg/injection, schedule: Q01DX010 (ip), vehicle: alkali diluted with saline",90 % of control
CS(=O)(=O)OCCCl,T/C,"dose: 9.4 mg/kg/injection, schedule: Q01DX010 (ip), vehicle: saline",100 % of control
same,T/C,[11],100 % of control and 103 % of control
same,T/C,[12],100 % of control and 106 % of control
same,T/C,[13],96 % of control and 103 % of control
C[C@@H]1C[C@@H]([C@H](O)CC2CC(=O)NC(=O)C2)C(=O)[C@@H](C)C1,T/C,[14],96 % of control and 105 % of control
same,T/C,[15],93 % of control and 117 % of control
same,T/C,[16],117 % of control and 121 % of control
same,T/C,[17],108 % of control
CS(=O)(=O)OCCC(=O)N1CCN(C(=O)CCOS(C)(=O)=O)CC1,T/C,[18],237 % of control
same,T/C,[19],303 % of control
OCC1OC(n2cnc3c(=S)nc[nH]c32)C(O)C1O (stereo unspecified),T/C,[16],96 % of control and 105 % of control
same,T/C,[17],106 % of control and 111 % of control
same,T/C,"dose: 80.0 mg/kg/injection, schedule: Q01DX010 (ip), vehicle: saline",100 % of control and 109 % of control
same,T/C,"dose: 160.0 mg/kg/injection, schedule: Q01DX010 (ip), vehicle: saline",100 % of control and 105 % of control
COc1ccc2c(c1OC)C(=O)O[C@@H]2[C@H]1c2c(cc3c(c2OC)OCO3)CCN1C,T/C,[8],107 % of control
same,T/C,[9],106 % of control and 107 % of control
same,T/C,[10],96 % of control and 107 % of control
same,T/C,[20],93 % of control and 96 % of control
same,T/C,[21],93 % of control
O=C(Nc1ccc(C2=NCCN2)cc1)c1ccc(C(=O)Nc2ccc(C3=NCCN3)cc2)c([N+](=O)[O-])c1,T/C,"dose: 6.0 mg/kg/injection, schedule: Q01DX010 (ip), vehicle: saline",157 % of control
same,T/C,[5],189 % of control and 278 % of control
same,T/C,"dose: 12.0 mg/kg/injection, schedule: Q01DX010 (ip), vehicle: saline",185 % of control and 300 % of control
same,T/C,"dose: 18.0 mg/kg/injection, schedule: Q01DX010 (ip), vehicle: saline",96 % of control and 121 % of control
CSc1ncnc2nc[nH]c12,T/C,[4],100 % of control and 103 % of control
same,T/C,[22],96 % of control and 115 % of control
same,T/C,[18],103 % of control
same,T/C,[19],100 % of control and 115 % of control
COc1cc(-c2ccc(Nc3ccccc3C(=O)O)c(OC)c2)ccc1Nc1ccccc1C(=O)O,T/C,[3],107 % of control
same,T/C,[4],115 % of control
same,T/C,[22],123 % of control
CCOC(N)=O,T/C,[20],103 % of control and 117 % of control
same,T/C,[21],106 % of control and 111 % of control
CCN(CC)CCNc1ccc(C)c2sc3ccccc3c(=O)c12,T/C,[4],103 % of control
same,T/C,[22],120 % of control and 123 % of control
same,T/C,[18],103 % of control
O=c1[nH]cc(F)c(=O)[nH]1,T/C,[14],161 % of control
same,T/C,[15],179 % of control and 180 % of control
same,T/C,[16],193 % of control and 246 % of control
O=c1cn[nH]c(=O)[nH]1,T/C,[10],93 % of control and 108 % of control
same,T/C,[20],103 % of control and 105 % of control
same,T/C,[21],97 % of control and 106 % of control
same,T/C,"dose: 500.0 mg/kg/injection, schedule: Q01DX010 (ip), vehicle: saline",102 % of control and 103 % of control
C[C@]12C=CC(=O)C=C1CC[C@@H]1[C@@H]2[C@@H](O)C[C@@]2(C)[C@H]1CC[C@]2(O)C(=O)CO,T/C,"dose: 12.5 mg/kg/injection, schedule: Q01DX010 (sc), vehicle: steriod suspending solution",123 % of control
same,T/C,"dose: 25.0 mg/kg/injection, schedule: Q01DX010 (sc), vehicle: steriod suspending solution",116 % of control
same,T/C,"dose: 50.0 mg/kg/injection, schedule: Q01DX010 (sc), vehicle: steriod suspending solution",110 % of control
same,T/C,"dose: 100.0 mg/kg/injection, schedule: Q01DX010 (sc), vehicle: steriod suspending solution",116 % of control
COc1cc(-c2ccc(Nc3ccccc3C(=O)O)c(OC)c2)ccc1N,T/C,[15],119 % of control
O=C(O)CCCc1ccc(N(CCCl)CCCl)cc1,T/C,[1],100 % of control and 105 % of control
same,T/C,[2],100 % of control and 123 % of control
same,T/C,[3],114 % of control
CC(CCC(C)OS(C)(=O)=O)OS(C)(=O)=O (stereo unspecified),T/C,[23],103 % of control
same,T/C,[7],103 % of control and 107 % of control
same,T/C,[5],96 % of control and 100 % of control
same,T/C,[6],107 % of control and 113 % of control
CC[n+]1c(-c2ccccc2)c2cc(N)ccc2c2ccc(N)cc21,T/C,[15],242 % of control
N=[N+]=CC(=O)OCC(N)C(=O)O (stereo unspecified),T/C,[1],102 % of control and 111 % of control
same,T/C,[2],102 % of control and 108 % of control
same,T/C,[3],91 % of control and 114 % of control
O=c1cnn(C2OC(CO)C(O)C2O)c(=O)[nH]1 (stereo unspecified),T/C,[19],106 % of control
same,T/C,[24],112 % of control
same,T/C,"dose: 800.0 mg/kg/injection, schedule: Q01DX010 (ip), vehicle: saline",106 % of control
CN(C)c1nc(N(C)C)nc(N(C)C)n1,T/C,[11],96 % of control and 100 % of control
same,T/C,[12],100 % of control
same,T/C,[13],100 % of control
same,T/C,"dose: 150.0 mg/kg/injection, schedule: Q01DX010 (ip), vehicle: saline",100 % of control and 103 % of control
CCCCNc1ncnc2c1cnn2C,T/C,[8],103 % of control and 108 % of control
same,T/C,[9],102 % of control and 103 % of control
same,T/C,[10],100 % of control and 123 % of control
CS(=O)(=O)OCC(O)C(O)C(O)C(O)COS(C)(=O)=O (stereo unspecified),T/C,[22],100 % of control
same,T/C,[18],103 % of control
same,T/C,[19],103 % of control
same,T/C,[24],114 % of control
Oc1cc(CN(CCCl)CCCl)c(O)cc1CN(CCCl)CCCl,T/C,"dose: 0.63 mg/kg/injection, schedule: Q01DX010 (ip), vehicle: saline",113 % of control and 120 % of control
same,T/C,[25],106 % of control and 116 % of control
CCOC(=O)c1[nH]c2ccccc2c1CN(CCCl)CCCl,T/C,[15],116 % of control
CN(C)/N=N/c1nc[nH]c1C(N)=O,T/C,[4],114 % of control
same,T/C,[22],114 % of control
same,T/C,[19],114 % of control
Nc1nc(=S)c2[nH]cnc2[nH]1,T/C,"dose: 1.25 mg/kg/injection, schedule: Q01DX010 (ip), vehicle: other",88 % of control
same,T/C,[25],94 % of control
same,T/C,"dose: 2.5 mg/kg/injection, schedule: Q01DX010 (ip), vehicle: saline",88 % of control
CS(=O)(=O)OCCN(CCOS(C)(=O)=O)c1ccc(N=O)cc1,T/C,[26],123 % of control
CC(=O)NC1=C(N2CC2)C(=O)C(NC(C)=O)=C(N2CC2)C1=O,T/C,[27],121 % of control
same,T/C,[28],175 % of control
same,T/C,[23],164 % of control
CC(=O)Nc1ccc2nc3ccc(NC(C)=O)cc3[n+](-c3ccccc3)c2c1,T/C,[4],111 % of control
same,T/C,[22],117 % of control
C#CCN(C)Cc1ccccc1,T/C,[4],93 % of control
same,T/C,[22],93 % of control
same,T/C,[18],96 % of control
same,T/C,[19],96 % of control
Nc1nc(F)nc2c1ncn2C1OC(CO)C(O)C1O (stereo unspecified),T/C,[27],100 % of control
same,T/C,[26],107 % of control and 114 % of control
same,T/C,[28],92 % of control and 103 % of control
same,T/C,[23],107 % of control
same,T/C,[7],96 % of control
